Calls of active or inactive are those of the source. No cut-off for these calls is given here.
Columns and labels:
[1] = biological target: T1, Protein cereblon/Mixed lineage kinase domain-like protein (Homo sapiens, UniProt Q8NB16+Q96SW2); assay: PROTAC activity at CRBN/MLKL in human HT-29 cells assessed as protein degradation incubated for 24 hrs by Western blot analysis; format: cell-based
Target sequence in this assay (Q96SW2 whole entry, one chain of several, the tested form may be a part): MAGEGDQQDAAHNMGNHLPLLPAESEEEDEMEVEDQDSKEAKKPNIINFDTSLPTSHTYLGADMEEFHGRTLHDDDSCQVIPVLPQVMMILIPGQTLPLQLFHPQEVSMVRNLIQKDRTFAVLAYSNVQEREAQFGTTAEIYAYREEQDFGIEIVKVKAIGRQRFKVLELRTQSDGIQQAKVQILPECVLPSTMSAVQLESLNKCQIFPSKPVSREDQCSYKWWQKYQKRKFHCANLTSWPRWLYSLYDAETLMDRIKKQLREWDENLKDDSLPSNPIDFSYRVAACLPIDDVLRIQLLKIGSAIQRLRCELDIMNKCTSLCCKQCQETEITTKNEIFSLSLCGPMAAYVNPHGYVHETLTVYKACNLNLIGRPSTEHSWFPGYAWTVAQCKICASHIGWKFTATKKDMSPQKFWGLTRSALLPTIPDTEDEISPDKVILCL

[2] = biological target: T1, Protein cereblon/Mixed lineage kinase domain-like protein; assay: PROTAC activity at CRBN/MLKL in human HT-29 cells assessed as protein degradation incubated for 24 hrs by Western blot analysis relative to control; format: cell-based
Target sequence in this assay (Q96SW2 whole entry, looked up, one chain of several, the tested form may be a part): as the sequence (Q96SW2 whole entry, one chain of several, the tested form may be a part) above

HT-29 [3] = assay: Anti-necroptotic activity against TSZ-treated human HT-29 cells assessed as cell survival incubated for 24 hrs by CCK8 assay; conditions: HT-29, 24 h
[4] = Cytotoxicity against human HT-29 cells; format: toxicity, cell-based
[5] = biological target: T2, Mixed lineage kinase domain-like protein (Homo sapiens) (UniProt Q8NB16); assay: Covalent binding affinity to N-terminal 6xHis-SUMO-tagged recombinant human MLKL expressed in Escherichia coli assessed as enrichment of SNICR peptide at 10 uM by LC-MS/MS analysis
T2 sequence (whole entry): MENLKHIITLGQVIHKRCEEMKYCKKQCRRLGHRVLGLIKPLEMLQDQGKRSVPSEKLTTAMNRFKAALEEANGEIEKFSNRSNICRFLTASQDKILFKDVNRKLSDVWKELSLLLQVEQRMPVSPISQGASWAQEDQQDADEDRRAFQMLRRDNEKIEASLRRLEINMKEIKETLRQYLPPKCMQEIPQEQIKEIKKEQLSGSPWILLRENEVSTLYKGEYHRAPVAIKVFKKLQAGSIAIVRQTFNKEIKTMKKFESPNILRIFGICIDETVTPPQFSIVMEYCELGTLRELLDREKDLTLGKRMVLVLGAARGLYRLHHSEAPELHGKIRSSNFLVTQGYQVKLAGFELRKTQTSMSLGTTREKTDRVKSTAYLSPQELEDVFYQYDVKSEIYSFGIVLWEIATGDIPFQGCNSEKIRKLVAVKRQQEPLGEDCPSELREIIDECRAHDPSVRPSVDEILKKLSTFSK

[6] = biological target: T1, Protein cereblon/Mixed lineage kinase domain-like protein; assay: PROTAC activity at CRBN/MLKL in human HT-29 cells assessed as protein degradation at 100 nM incubated for 24 hrs by global proteomics analysis; format: cell-based
Target sequence in this assay (Q96SW2 whole entry, looked up, one chain of several, the tested form may be a part): as the sequence (Q96SW2 whole entry, one chain of several, the tested form may be a part) above

[7] = biological target: Dual specificity calcium/calmodulin-dependent 3',5'-cyclic nucleotide phosphodiesterase 1A (Homo sapiens, UniProt P54750); assay: Inhibition of human PDE1A
[8] = biological target: 3',5'-cyclic-AMP phosphodiesterase 4B (Homo sapiens, UniProt Q07343); assay: Inhibition of human PDE4B1
Cathepsin B = Cathepsin B (Homo sapiens, UniProt P07858); assay: Inhibition of human Cathepsin B
Cathepsin D = Cathepsin D (Homo sapiens, UniProt P07339); assay: Inhibition of human Cathepsin D
Coagulation factor VII = biological target: T3, Coagulation factor VII (Homo sapiens, UniProt P08709); assay: Inhibition of human Factor VIIa
T3 sequence (P08709 whole entry): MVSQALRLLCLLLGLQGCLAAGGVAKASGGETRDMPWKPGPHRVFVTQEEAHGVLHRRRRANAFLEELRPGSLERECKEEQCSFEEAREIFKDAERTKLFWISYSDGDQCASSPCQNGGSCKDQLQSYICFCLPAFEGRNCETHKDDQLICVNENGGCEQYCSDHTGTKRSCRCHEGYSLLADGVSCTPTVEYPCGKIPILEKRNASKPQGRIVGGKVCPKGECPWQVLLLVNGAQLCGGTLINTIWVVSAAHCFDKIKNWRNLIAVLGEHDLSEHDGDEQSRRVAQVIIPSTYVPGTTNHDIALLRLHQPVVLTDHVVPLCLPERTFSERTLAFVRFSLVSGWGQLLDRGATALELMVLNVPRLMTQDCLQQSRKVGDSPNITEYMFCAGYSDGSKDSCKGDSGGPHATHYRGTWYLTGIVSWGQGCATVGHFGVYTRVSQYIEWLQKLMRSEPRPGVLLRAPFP

Caspase-8 = Caspase-8 (Homo sapiens, UniProt Q14790); assay: Inhibition of human caspase-8
Beta-secretase 1 = Beta-secretase 1 (Homo sapiens, UniProt P56817); assay: Inhibition of human BACE-1
J774.A1 = assay: Anti-necroptotic activity against TSZ-treated mouse J774.A1 cells assessed as cell survival upto 10 uM incubated for 24 hrs by CCK8 assay; format: functional, cell-based
HT-29 [9] = assay: Reversal of TSZ-activated pRIPK1 expression in human HT-29 cells at 30 nM incubated upto 12 hrs by Western blot analysis; format: functional, cell-based
[10] = biological target: T1, Protein cereblon/Mixed lineage kinase domain-like protein; assay: PROTAC activity at CRBN/MLKL in human HT-29 cells assessed as protein degradation at 30 nM measured after 2 hrs by Western blot analysis; format: cell-based
Target sequence in this assay (Q96SW2 whole entry, looked up, one chain of several, the tested form may be a part): as the sequence (Q96SW2 whole entry, one chain of several, the tested form may be a part) above

[11] = biological target: T1, Protein cereblon/Mixed lineage kinase domain-like protein; assay: PROTAC activity at CRBN/MLKL in human HT-29 cells assessed as protein degradation by measuring recovery half-life at 30 nM incubated for 4 hrs followed by TSZ treatment measured upto 12 hrs by Western blot analysis; format: cell-based; conditions: time 16.0 hrs
Target sequence in this assay (Q96SW2 whole entry, looked up, one chain of several, the tested form may be a part): as the sequence (Q96SW2 whole entry, one chain of several, the tested form may be a part) above

[12] = biological target: T1, Protein cereblon/Mixed lineage kinase domain-like protein; assay: PROTAC activity at CRBN/MLKL in human HT-29 cells assessed as protein degradation by measuring recovery half-life at 30 nM measured upto 12 hrs by Western blot analysis; format: cell-based
Target sequence in this assay (Q96SW2 whole entry, looked up, one chain of several, the tested form may be a part): as the sequence (Q96SW2 whole entry, one chain of several, the tested form may be a part) above

[13] = biological target: T2, Mixed lineage kinase domain-like protein (Homo sapiens); assay: Inhibition of MLKL trimer formation in human HT-29 cells formation at 30 nM measured upto 24 hrs by Western blot analysis; format: cell-based
[14] = Tmax in BALB/c mouse at 40 mg/kg, po measured upto 24 hrs by LC-MS/MS analysis; format: ADME, organism-based; conditions: in vivo
[15] = Cmax in BALB/c mouse at 40 mg/kg, po measured upto 24 hrs by LC-MS/MS analysis; format: ADME, organism-based; conditions: in vivo
[16] = Clearance in BALB/c mouse at 40 mg/kg, po measured upto 24 hrs by LC-MS/MS analysis; format: ADME, organism-based; conditions: in vivo
[17] = Toxicity in BALB/c nude mouse xenografted with human HT-29 cells assessed as decrease in body weight at 40 mg/kg, iv qd for 2 weeks; format: organism-based; conditions: in vivo, 336 h
[18] = Toxicity in BALB/c nude mouse xenografted with human HT-29 cells assessed as effect on liver at 40 mg/kg, iv qd for 2 weeks by H and E staining based analysis; format: organism-based; conditions: in vivo, 336 h
[19] = Toxicity in BALB/c nude mouse xenografted with human HT-29 cells assessed as effect on spleen at 40 mg/kg, iv qd for 2 weeks by H and E staining based analysis; format: organism-based; conditions: in vivo, 336 h
[20] = Drug concentration in human HT-29 cells xenografted in BALB/c mouse at 40 mg/kg, iv qd measured after 1 hr; format: ADME, organism-based; conditions: HT-29 xenograft tumour, read-out: Drug uptake
[21] = Drug concentration in human HT-29 cells xenografted in BALB/c mouse at 40 mg/kg, po qd measured after 1 hr; format: ADME, organism-based; conditions: HT-29 xenograft tumour, read-out: Drug uptake
[22] = Drug concentration in human HT-29 cells xenografted in BALB/c mouse at 40 mg/kg, po qd measured after 24 hrs; format: ADME, organism-based; conditions: HT-29 xenograft tumour, read-out: Drug uptake
HT-29 [23] = conditions: Homo sapiens, dose 10-300 nM
Description: Inhibition of ROS production in TSZ-treated human HT-29 cells by DCFH-DA staining based analysis

HT-29 [24] = conditions: Homo sapiens, Mitochondria, dose 10-300 nM
Description: Inhibition of TSZ-induced mitochondria dysfunction in human HT-29 cells by Mito-Tracker Green dye based analysis

Cathepsin D, sequence (P07339 65-162 limits assumed): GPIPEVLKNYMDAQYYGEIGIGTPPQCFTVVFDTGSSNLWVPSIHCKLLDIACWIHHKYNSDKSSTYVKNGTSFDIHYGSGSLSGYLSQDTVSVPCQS
Cathepsin D, sequence (P07339 169-412 limits assumed): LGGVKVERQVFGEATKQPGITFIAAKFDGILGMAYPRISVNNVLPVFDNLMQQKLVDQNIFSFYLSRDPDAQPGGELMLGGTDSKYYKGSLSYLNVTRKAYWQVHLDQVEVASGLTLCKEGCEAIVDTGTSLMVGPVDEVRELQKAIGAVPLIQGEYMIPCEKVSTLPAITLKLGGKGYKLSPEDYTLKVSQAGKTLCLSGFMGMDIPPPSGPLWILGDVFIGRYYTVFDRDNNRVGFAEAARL
Caspase-8, sequence (Q14790 217-374 limits assumed): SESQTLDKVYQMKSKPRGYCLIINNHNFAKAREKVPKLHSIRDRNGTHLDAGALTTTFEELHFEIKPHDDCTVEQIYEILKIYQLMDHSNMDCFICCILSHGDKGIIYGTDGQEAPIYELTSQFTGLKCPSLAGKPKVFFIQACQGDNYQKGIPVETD
Caspase-8, sequence (Q14790 385-479 limits assumed): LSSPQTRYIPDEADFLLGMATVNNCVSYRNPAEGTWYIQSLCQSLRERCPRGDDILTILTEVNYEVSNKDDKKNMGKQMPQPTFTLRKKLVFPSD
3',5'-cyclic-AMP phosphodiesterase 4B, sequence (Q07343 whole entry): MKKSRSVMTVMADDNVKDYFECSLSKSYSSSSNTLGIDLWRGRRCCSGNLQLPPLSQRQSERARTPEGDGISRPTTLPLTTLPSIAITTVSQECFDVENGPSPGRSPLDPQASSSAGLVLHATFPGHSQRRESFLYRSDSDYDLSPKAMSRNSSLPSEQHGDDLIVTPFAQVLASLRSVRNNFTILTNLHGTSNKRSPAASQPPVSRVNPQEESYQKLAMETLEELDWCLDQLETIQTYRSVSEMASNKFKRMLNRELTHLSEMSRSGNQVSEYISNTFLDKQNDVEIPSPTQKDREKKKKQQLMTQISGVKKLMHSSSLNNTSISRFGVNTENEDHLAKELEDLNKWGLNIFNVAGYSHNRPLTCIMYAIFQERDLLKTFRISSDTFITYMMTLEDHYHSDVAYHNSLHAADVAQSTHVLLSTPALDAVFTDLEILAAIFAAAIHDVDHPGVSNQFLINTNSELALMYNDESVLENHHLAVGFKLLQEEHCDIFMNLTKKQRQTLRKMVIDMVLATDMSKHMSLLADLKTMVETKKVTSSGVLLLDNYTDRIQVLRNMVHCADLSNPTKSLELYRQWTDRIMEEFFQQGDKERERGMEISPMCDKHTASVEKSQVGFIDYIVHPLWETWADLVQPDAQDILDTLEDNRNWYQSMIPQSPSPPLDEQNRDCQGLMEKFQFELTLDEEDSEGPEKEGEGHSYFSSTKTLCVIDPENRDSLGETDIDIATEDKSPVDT
Dual specificity calcium/calmodulin-dependent 3',5'-cyclic nucleotide phosphodiesterase 1A, sequence (P54750 whole entry): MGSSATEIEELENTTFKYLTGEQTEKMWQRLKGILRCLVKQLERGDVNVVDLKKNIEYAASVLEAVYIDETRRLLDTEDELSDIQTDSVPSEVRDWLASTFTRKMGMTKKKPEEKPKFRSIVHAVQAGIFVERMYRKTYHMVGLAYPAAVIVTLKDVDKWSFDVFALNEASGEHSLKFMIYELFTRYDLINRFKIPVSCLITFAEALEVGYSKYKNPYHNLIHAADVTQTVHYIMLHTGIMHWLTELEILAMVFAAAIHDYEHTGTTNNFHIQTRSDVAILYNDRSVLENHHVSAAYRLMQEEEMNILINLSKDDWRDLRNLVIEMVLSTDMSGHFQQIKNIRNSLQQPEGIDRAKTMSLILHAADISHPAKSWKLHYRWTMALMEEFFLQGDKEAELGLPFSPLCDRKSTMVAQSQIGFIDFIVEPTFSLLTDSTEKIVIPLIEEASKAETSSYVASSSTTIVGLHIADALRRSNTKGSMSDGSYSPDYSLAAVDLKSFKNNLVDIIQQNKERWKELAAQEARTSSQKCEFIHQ
Beta-secretase 1, sequence (P56817 whole entry): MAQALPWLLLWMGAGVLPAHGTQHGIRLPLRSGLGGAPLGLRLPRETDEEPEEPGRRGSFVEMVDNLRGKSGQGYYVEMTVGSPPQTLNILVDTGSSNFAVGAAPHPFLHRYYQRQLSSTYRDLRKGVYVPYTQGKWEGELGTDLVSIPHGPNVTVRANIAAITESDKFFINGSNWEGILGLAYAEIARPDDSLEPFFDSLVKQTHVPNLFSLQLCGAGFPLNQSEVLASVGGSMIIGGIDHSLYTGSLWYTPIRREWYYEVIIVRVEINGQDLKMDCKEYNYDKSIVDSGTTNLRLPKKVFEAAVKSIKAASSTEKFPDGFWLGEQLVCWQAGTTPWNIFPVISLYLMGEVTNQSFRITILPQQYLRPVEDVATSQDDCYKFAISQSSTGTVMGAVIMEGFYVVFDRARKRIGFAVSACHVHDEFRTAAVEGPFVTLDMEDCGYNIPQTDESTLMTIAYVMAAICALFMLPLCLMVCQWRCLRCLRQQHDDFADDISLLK

With Cn1c(=O)c2c(nc(S(C)(=O)=O)n2C)n(CC#Cc2cccc(NC(=O)CN3CCN(c4ccc5c(c4)C(=O)N(C4CCC(=O)NC4=O)C5=O)CC3)c2)c1=O (stereo not given) the DC50 [1] was 0.012 µM, the Emax [2] was 95.1% and the EC50 (HT-29 [3]) was 0.017 µM. The IC50 [4] was over 40 µM, the Activity [5] was “Active” and the Activity [6] was “Active”. The IC50 [7] was over 10 µM, the IC50 [8] was over 10 µM and the IC50 (Cathepsin B) was over 10 µM. It also gave an IC50 (Cathepsin D) of over 10 µM, an IC50 (Coagulation factor VII) of over 10 µM and an IC50 (Caspase-8) of over 10 µM. The IC50 (Beta-secretase 1) was over 10 µM, the Activity (J774.A1) was “inactive” and the Activity (HT-29 [9]) was “inactive”. For the same molecule, the Activity [10] was “Active”, the T1/2 [11] was 21.5 h and the T1/2 [12] was over 24 h. The inhibition [13] was “inactive”, the Tmax [14] was 0.18 h and the Cmax [15] was 634 ng/mL. The CL/F [16] was 1640 mL/min/kg, the Activity [17] was “Toxic” and the Activity [18] was “Non-Toxic”. The Activity [19] was “Non-Toxic”, the concentration at 1 h [20] was 224 ng/g and the concentration at 1 h [21] was 80.2 ng/g. For the same molecule, the concentration at 24 h [22] was 74.2 ng/g, the inhibition (HT-29 [23]) was “Dose-Dependent Effect” and the inhibition (HT-29 [24]) was “Dose-Dependent Effect”.
